Measured values: article PMC11638965, “Leveraging Dual-Ligase Recruitment to Enhance Protein Degradation via a Heterotrivalent Proteolysis Targeting Chimera” (Journal of the American Chemical Society, 2024)
Values joined by “and” are separate entries in the source; they are usually repeats but may differ in a detail not shown here. Equal entries are not always repeated.

Experiments:
[1] = biological target: T1, BRD3 (Homo sapiens, UniProt Q15059); assay: Western blot dose-response degradation in HEK293 cells; type: cell-based; settings: 6 h, mean ± S.E.M. of three experiments, values marked b mean ± S.D. of two
T1 construct: HiBiT, is appended to the N-terminus of endogenous BRD2, BRD3, and BRD4; endogenous in cells
Protocol: (§1) HEK293 cells were obtained from ATCC. HEK293 was cultured in DMEM supplemented with 10% (v/v) fetal bovine serum (FBS), 1% […] and 1% (v/v) penicillin/streptomycin (pen/strep) at 37 °C, 5% CO2, and 95% humidity.
(§2) HEK293 cells were plated at a density of 5 × 10^5 cells per well of a six well plate a day prior to initiation of the experiment. Compounds were dissolved to a 10 mM concentrated stock solution in DMSO from which the compounds were further diluted to a working concentration range of 1 μM to 100 pM in DMEM and was subsequently added to cells at the initiation of the experiment. An additional vehicle control was added to cells alongside compound treatments. Cells were left to incubate with compound for 6 h at 37 °C, 5% CO2, and 95% humidity. Cells were then subsequently washed twice with PBS before being harvested in RIPA buffer supplemented with protease inhibitor cocktail and Benzonase Nuclease before being store at −20 °C.
(§3) Protein concentration was determined using the BCA assay. Samples were then prepared in LDS buffer containing 5% 1 M DTT and subsequently loaded onto NuPAGE 4–12% Bis-Tris Midi gels, followed by the transfer of the proteins onto nitrocellulose membranes. The membranes were blocked for 1 h prior to incubation with the primary antibodies using 5% Milk TBST. Membranes were incubated at 4 °C in either BRD4(Ab128874), BRD3(Ab50818), BRD2(Ab139690), VHL(CST#68547) and CRBN(CST#71810) primary antibody overnight. Following overnight incubation, the membranes were incubated with complementary IRDye 800CW secondary antibody and a hFAB Rhodamine Anti-Tubulin Primary Antibody (loading control) for 1 h and then imaged with a Bio-Rad imager. All Western blots were analyzed for band intensities using Image Lab (Bio-Rad). The data extracted from these blots were then plotted and analyzed using Prism (v. 10.2.2, GraphPad). Linear regression curve fitting was used to calculate pDC50 values. The standard deviation of the pDC50 was calculated for all compounds that had two independent repeats and the standard error of the mean calculated for all compounds that had three independent repeats. All Western blotting figures were developed in Adobe illustrator.

[2] = biological target: T2, BRD4^Long (Homo sapiens, UniProt O60885); assay: as above; type: cell-based; settings: for DC50: HEK293 cells, 6 h, Western blot, mean ± S.E.M. of three experiments, values marked b mean ± S.D. of two
T2 construct: Western blot data for BET, CRBN and VHL protein levels; endogenous in cells; host or cells: HEK293 (ATCC)
Protocol: as §1, §2, §3

[3] = biological target: T3, BRD4^Short (Homo sapiens, UniProt O60885); assay: as above; type: cell-based; settings: 6 h, mean ± S.E.M. of three experiments, values marked b mean ± S.D. of two
T3 construct: Western blot data for BET, CRBN and VHL protein levels; endogenous in cells; host or cells: HEK293 (ATCC)
Protocol: as §1, §2, §3

[4] = biological target: T4, BRD2 (Homo sapiens, UniProt P25440); assay: as above; type: cell-based; settings: 6 h, mean ± S.E.M. of three experiments, values marked b mean ± S.D. of two
T4 construct: HiBiT, is appended to the N-terminus of endogenous BRD2, BRD3, and BRD4; endogenous in cells
Protocol: as §1, §2, §3

[5] = biological target: T4, BRD2; assay: Live cell kinetic HiBiT degradation assay, HiBiT-BRD2 HEK293 cells; type: cell-based; settings: for DC50: HiBiT-BRD2 CRISPR knock-in HEK293 cells, live cell kinetic degradation, 24 h, read-out: Dmax 50 BRD2; for λmax BRD2 (degradation rate): HiBiT-BRD2 knock-in HEK293 cells
How it was run: (§4)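 HEK293 cells with CRISPR-inserted N-terminal HiBiT on endogenous BRD2 or BRD3, stably expressing LgBiT, equilibrated 3 h with Endurazine at 37 °C, then treated with threefold PROTAC dilution series. Luminescence read every 7 min for 24 h, normalized to pre-read and DMSO; Dmax as lowest signal, rate constant by one-phase exponential decay, Dmax50 from Dmax-concentration fit.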

[6] = tested on: KBM7 cells; assay: Cell viability assay (CellTiter-Glo); type: cell-based, human; settings: Homo sapiens, KBM-7; WT KBM7, 5.12 pM to 10 uM, n = 3 (Table S4)
[7] = tested on: K562 cells; assay: Cell viability assay (CellTiter-Glo); type: cell-based, human; settings: Homo sapiens; WT K562, 5.12 pM to 10 uM, n = 3 (Table S4)
[8] = biological target: CRBN (Homo sapiens, UniProt Q96SW2); assay: Western blot dose-response degradation in HEK293 cells; type: cell-based; parameters: Western blot data for BET, CRBN and VHL protein levels; endogenous in cells; host or cells: HEK293 (ATCC); settings: for DC50: HEK293 cells, 6 h, Western blot, mean ± S.E.M. of three experiments, values marked b mean ± S.D. of two
Protocol: as §1, §2, §3

[9] = biological target: T1, BRD3; assay: Live cell kinetic HiBiT degradation assay, HiBiT-BRD3 HEK293 cells; type: cell-based; settings: for DC50: live cell kinetic degradation, read-out: Dmax 50 BRD3
How it was run: as §4

[10] = HiBiT-BRD3 CRISPR knock-in HEK293 cells, 24 h
[11] = HiBiT-BRD3 knock-in HEK293 cells

T4 sequence (P25440 whole entry): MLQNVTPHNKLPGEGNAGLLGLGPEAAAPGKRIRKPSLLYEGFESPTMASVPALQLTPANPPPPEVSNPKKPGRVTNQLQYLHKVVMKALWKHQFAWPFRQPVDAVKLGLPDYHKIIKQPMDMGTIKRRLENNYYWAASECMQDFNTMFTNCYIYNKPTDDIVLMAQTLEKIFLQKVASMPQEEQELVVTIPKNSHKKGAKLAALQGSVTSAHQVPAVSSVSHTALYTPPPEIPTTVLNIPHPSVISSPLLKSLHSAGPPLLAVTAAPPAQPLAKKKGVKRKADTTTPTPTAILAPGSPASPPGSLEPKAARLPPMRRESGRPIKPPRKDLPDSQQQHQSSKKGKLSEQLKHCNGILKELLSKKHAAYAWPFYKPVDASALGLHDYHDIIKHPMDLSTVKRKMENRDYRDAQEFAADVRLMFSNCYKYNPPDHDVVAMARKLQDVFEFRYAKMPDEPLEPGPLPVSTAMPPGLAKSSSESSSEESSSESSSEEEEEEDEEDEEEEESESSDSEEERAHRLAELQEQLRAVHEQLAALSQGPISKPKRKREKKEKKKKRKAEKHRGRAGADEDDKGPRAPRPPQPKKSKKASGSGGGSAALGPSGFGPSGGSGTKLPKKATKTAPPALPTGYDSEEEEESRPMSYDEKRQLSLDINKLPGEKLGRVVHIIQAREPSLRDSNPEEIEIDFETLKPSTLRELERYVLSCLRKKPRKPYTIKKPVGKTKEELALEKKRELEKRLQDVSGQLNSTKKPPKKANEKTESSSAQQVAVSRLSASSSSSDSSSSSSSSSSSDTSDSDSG
T1 sequence (Q15059 whole entry): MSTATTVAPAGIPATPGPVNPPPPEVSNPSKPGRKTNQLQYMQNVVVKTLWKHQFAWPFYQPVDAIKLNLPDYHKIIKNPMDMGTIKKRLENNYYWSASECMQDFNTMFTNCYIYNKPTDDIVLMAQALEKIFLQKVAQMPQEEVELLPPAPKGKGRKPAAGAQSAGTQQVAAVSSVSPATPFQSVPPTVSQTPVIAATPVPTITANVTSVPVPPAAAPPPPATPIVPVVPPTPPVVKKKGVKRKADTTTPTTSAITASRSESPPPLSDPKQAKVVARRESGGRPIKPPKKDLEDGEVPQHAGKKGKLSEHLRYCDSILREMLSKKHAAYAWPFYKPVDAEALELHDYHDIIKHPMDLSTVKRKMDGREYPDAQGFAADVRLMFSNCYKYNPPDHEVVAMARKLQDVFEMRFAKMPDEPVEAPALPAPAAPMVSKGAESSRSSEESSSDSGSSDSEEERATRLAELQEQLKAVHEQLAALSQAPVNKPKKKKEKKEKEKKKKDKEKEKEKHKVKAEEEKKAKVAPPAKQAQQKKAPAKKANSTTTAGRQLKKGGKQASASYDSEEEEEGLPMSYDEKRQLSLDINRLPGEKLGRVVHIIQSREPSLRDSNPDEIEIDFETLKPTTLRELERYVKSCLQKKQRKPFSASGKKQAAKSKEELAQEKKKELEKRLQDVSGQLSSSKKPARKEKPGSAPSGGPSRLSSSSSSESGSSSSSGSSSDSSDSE
CRBN, sequence (Q96SW2 whole entry): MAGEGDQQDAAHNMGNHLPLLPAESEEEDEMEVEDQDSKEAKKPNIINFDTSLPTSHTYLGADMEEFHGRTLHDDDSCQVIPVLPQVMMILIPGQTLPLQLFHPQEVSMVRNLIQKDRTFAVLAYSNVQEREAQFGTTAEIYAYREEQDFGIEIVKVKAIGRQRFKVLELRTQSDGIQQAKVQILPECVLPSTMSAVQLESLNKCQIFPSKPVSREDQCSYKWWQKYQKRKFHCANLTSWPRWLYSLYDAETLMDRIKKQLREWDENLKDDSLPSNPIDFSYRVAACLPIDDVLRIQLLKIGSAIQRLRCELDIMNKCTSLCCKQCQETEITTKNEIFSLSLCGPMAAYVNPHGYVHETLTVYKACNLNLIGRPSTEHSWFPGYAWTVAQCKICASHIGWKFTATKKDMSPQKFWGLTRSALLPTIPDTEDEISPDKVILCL

| Structure (SMILES) | DC50 [1] [nM] | DC50 [2] [nM] | DC50 [3] [nM] | DC50 [4] [nM] | DC50 [5] [nM] | λmax BRD2 (degradation rate) [5] [h⁻¹] | EC50 [6] [nM] | EC50 [7] [nM] | fold increase in CRBN degradation vs nonmethylated matched pair ([8]; 27 vs 26, 24 vs 23, DC50, HEK293 Western blot) [fold] | DC50 [8] [nM] | DC50 [9, 10] [nM] | λmax BRD3 (degradation rate) [9, 11] | DC50 [9, 11] [nM] | fold decrease in BRD4^Long degradation vs 26 ([2]; DC50, HEK293 Western blot) [fold] | fold decrease in CRBN degradation vs 26 ([8]; DC50, HEK293 Western blot) [fold] |
| --- | --- | --- | --- | --- | --- | --- | --- | --- | --- | --- | --- | --- | --- | --- | --- |
| Cc1ncsc1-c1ccc([C@H](C)NC(=O)[C@@H]2C[C@@H](O)CN2C(=O)[C@@H](NC(=O)COCC(C)(COCCOCCOCCNc2cc3c(cc2F)C(=O)N(C2CCC(=O)NC2=O)C3=O)COCCOCCOCCOC(=O)C[C@@H]2N=C(c3ccc(Cl)cc3)c3c(sc(C)c3C)-n3c(C)nnc32)C(C)(C)C)cc1 (mixture of isomers) [AB3067 (27), (17S)-11-((2-(2-(2-((2-(2,6-dioxopiperidin-3-yl)-6-fluoro-1,3-dioxoisoindolin-5-yl)amino)ethoxy)ethoxy)ethoxy)methyl)-17-((2S,4R)-4-hydroxy-2-(((S)-1-(4-(4-methylthiazol-5-yl)phenyl)ethyl)carbamoyl)pyrrolidine-1-carbonyl)-11,18,18-trimethyl-15-oxo-3,6,9,13-tetraoxa-16-azanonadecyl 2-((S)-4-(4-chlorophenyl)-2,3,9-trimethyl-6H-thieno[3,2-f][1,2,4]triazolo[4,3-a][1,4]diazepin-6-yl)acetate] | 1.6 ± 0.3 | 2.3 ± 0.4 | 2.1 ± 0.3 | 15 ± 2.1 | 2 | 2.37 | 6.9 | 62.1 | ~2.6 | 75 ± 14 | < 0.43 | 3.31 h⁻¹ | 0.085 | – | – |
| Cc1ncsc1-c1ccc(CNC(=O)[C@@H]2C[C@@H](O)CN2C(=O)[C@@H](NC(=O)COCC(C)(COCCOCCNc2cc3c(cc2F)C(=O)N(C2CCC(=O)NC2=O)C3=O)COCCOCCOC(=O)C[C@@H]2N=C(c3ccc(Cl)cc3)c3c(sc(C)c3C)-n3c(C)nnc32)C(C)(C)C)cc1 (mixture of isomers) [AB3125 (30), (14S)-8-((2-(2-((2-(2,6-dioxopiperidin-3-yl)-6-fluoro-1,3-dioxoisoindolin-5-yl)amino)ethoxy)ethoxy)methyl)-14-((2S,4R)-4-hydroxy-2-((4-(4-methylthiazol-5-yl)benzyl)carbamoyl)pyrrolidine-1-carbonyl)-8,15,15-trimethyl-12-oxo-3,6,10-trioxa-13-azahexadecyl 2-((S)-4-(4-chlorophenyl)-2,3,9-trimethyl-6H-thieno[3,2-f][1,2,4]triazolo[4,3-a][1,4]diazepin-6-yl)acetate] | 6.4 ± 0.8 | 4 ± 2.1 | 4.4 ± 2.4 | 19 ± 7.2 | 31 | 2.63 | 34.1 | 242 | – | 900 ± 720 | 3 | 2.60 h⁻¹ and 2.6 h⁻¹ | – | 5.3 | 4.5 |
| Cc1ncsc1-c1ccc(CNC(=O)[C@@H]2C[C@@H](O)CN2C(=O)[C@@H](NC(=O)COCC(C)(COCCOCCNc2cc3c(cc2F)C(=O)N(C2CCC(=O)NC2=O)C3=O)COCCOCCOCCOC(=O)C[C@@H]2N=C(c3ccc(Cl)cc3)c3c(sc(C)c3C)-n3c(C)nnc32)C(C)(C)C)cc1 (mixture of isomers) [AB3126 (29), (17S)-11-((2-(2-((2-(2,6-dioxopiperidin-3-yl)-6-fluoro-1,3-dioxoisoindolin-5-yl)amino)ethoxy)ethoxy)methyl)-17-((2S,4R)-4-hydroxy-2-((4-(4-methylthiazol-5-yl)benzyl)carbamoyl)pyrrolidine-1-carbonyl)-11,18,18-trimethyl-15-oxo-3,6,9,13-tetraoxa-16-azanonadecyl 2-((S)-4-(4-chlorophenyl)-2,3,9-trimethyl-6H-thieno[3,2-f][1,2,4]triazolo[4,3-a][1,4]diazepin-6-yl)acetate] | 6.6 ± 0.3 | 5 ± 5.3 | 5.3 ± 5.5 | 33 ± 34 | 18 | 2.35 | 7.3 | 80.5 | – | 150 ± 190 | 1.9 | 2.62 h⁻¹ | – | – | – |
